Measured values: the supplement of paper PMC10307832

How the values were obtained:
Experiment in all cases: relative viability (nuclei count vs DMSO), 5 days (fraction); higher = more cells survive
Wnt-C59 + Bortezomib = compound: CC1=NC=CC(=C1)C2=CC=C(C=C2)CC(=O)NC3=CC=C(C=C3)C4=CN=CC=C4 [Wnt-C59] + CC(C)C[C@H](NC(=O)[C@H](Cc1ccccc1)NC(=O)c1cnccn1)B(O)O [Bortezomib] (partner 0.002 µM)
Outline: (§1)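 Relative viability is defined as nuclei in treated wells over nuclei in vehicle wells. Duplicate plates were run and medians reported. Lung cancer cell lines in 1536-well plates were dosed by pin tool one day after seeding, with one drug or with a fixed anchor-drug dose plus five library-drug doses (not always all listed) in √10 steps, and nuclei were counted after 5 days.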

Lapatinib + Crizotinib = compound: CS(=O)(=O)CCNCc1ccc(-c2ccc3ncnc(Nc4ccc(OCc5cccc(F)c5)c(Cl)c4)c3c2)o1 [Lapatinib] + C[C@@H](Oc1cc(-c2cnn(C3CCNCC3)c2)cnc1N)c1c(Cl)ccc(F)c1Cl [Crizotinib] (partner 1 µM)
Outline: as §1

Wnt-C59 + AZD7762 = compound: CC1=NC=CC(=C1)C2=CC=C(C=C2)CC(=O)NC3=CC=C(C=C3)C4=CN=CC=C4 [Wnt-C59] + NC(=O)Nc1cc(-c2cccc(F)c2)sc1C(=O)N[C@H]1CCCNC1 [AZD7762] (partner 0.2 µM)
Outline: as §1

Lapatinib + Olaparib = compound: CS(=O)(=O)CCNCc1ccc(-c2ccc3ncnc(Nc4ccc(OCc5cccc(F)c5)c(Cl)c4)c3c2)o1 [Lapatinib] + O=C(c1cc(Cc2n[nH]c(=O)c3ccccc23)ccc1F)N1CCN(C(=O)C2CC2)CC1 [Olaparib] (partner 8 µM)
Outline: as §1

Cell Line | relative viability (Wnt-C59 + Bortezomib; first compound 0.001 µM) | relative viability (Wnt-C59 + Bortezomib; first compound 0.01 µM) | relative viability (Wnt-C59 + Bortezomib; first compound 0.03162 µM) | relative viability (Wnt-C59 + Bortezomib; first compound 0.1 µM) | relative viability (Lapatinib + Crizotinib; first compound 0.02 µM) | relative viability (Lapatinib + Crizotinib; first compound 0.06325 µM) | relative viability (Lapatinib + Crizotinib; first compound 0.2 µM) | relative viability (Lapatinib + Crizotinib; first compound 0.6325 µM) | relative viability (Lapatinib + Crizotinib; first compound 2 µM) | relative viability (Wnt-C59 + AZD7762; first compound 0.001 µM) | relative viability (Wnt-C59 + AZD7762; first compound 0.01 µM) | relative viability (Wnt-C59 + AZD7762; first compound 0.03162 µM) | relative viability (Wnt-C59 + AZD7762; first compound 0.1 µM) | relative viability (Lapatinib + Olaparib; first compound 0.02 µM) | relative viability (Lapatinib + Olaparib; first compound 0.06325 µM) | relative viability (Lapatinib + Olaparib; first compound 0.2 µM) | relative viability (Lapatinib + Olaparib; first compound 0.6325 µM) | relative viability (Lapatinib + Olaparib; first compound 2 µM)
RERF-LC-KJ | 1.07 | 1.05 | 1.22 | 1.21 | 0.803 | 0.802 | 0.86 | 0.876 | 0.726 | 0.965 | 0.934 | 1.19 | 0.912 | 0.934 | 0.896 | 0.947 | 0.811 | 0.682
EMC-BAC-2 | 0.913 | 0.926 | 0.998 | 0.943 | 0.729 | 0.635 | 0.788 | 0.661 | 0.74 | 0.941 | 0.975 | 0.897 | 0.975 | – | 0.447 | 0.56 | 0.537 | 0.528
NCI-H522 | – | – | – | – | – | – | – | – | – | 0.857 | 0.863 | 0.877 | 0.637 | – | 0.467 | 0.575 | 0.572 | 0.518
NCI-H1651 | 0.928 | 0.985 | 0.97 | 0.913 | 0.907 | 0.845 | 0.884 | 0.849 | 0.904 | 0.502 | 0.394 | 0.551 | 0.459 | 0.193 | 0.183 | 0.181 | 0.197 | 0.178
IA-LM | 0.942 | 0.713 | 0.91 | 0.724 | 0.823 | 0.98 | 0.713 | 0.881 | 0.644 | – | – | – | – | 0.789 | 0.855 | 0.778 | 0.886 | 0.843
NCI-H520 | 0.596 | 0.611 | 0.509 | 0.57 | 0.726 | 0.759 | 0.863 | 0.812 | 0.745 | – | – | – | – | 0.349 | 0.278 | 0.363 | 0.326 | 0.366
NCI-H1793 | – | – | – | – | – | – | – | – | – | 0.467 | 0.408 | 0.536 | 0.532 | – | 0.363 | 0.598 | 0.537 | 0.449
NCI-H647 | 1.06 | 1.02 | 0.842 | 1.06 | 1.01 | 0.904 | 1.03 | 1.03 | 0.923 | 0.554 | 0.389 | 0.502 | 0.472 | 0.536 | 0.412 | 0.506 | 0.523 | 0.489
HCC-44 | 0.948 | 0.886 | 0.903 | 0.887 | 0.747 | 0.743 | 0.837 | 0.802 | 0.675 | 1.07 | 0.952 | 0.97 | 1.01 | 0.981 | 1 | 0.992 | 0.974 | 0.867
HCC-827 | 1.05 | 1.14 | 0.97 | 1.05 | 0.915 | 0.944 | 0.923 | 0.88 | 0.513 | 0.274 | 0.27 | 0.219 | 0.175 | 0.591 | 0.656 | 0.533 | 0.678 | 0.549
NCI-H2170 | – | – | – | – | 1.13 | 0.904 | 0.694 | 0.475 | 0.223 | 0.762 | 0.688 | 0.992 | 0.836 | 0.564 | 0.483 | 0.501 | 0.459 | 0.118
Calu-6 | 0.924 | 0.99 | 1.05 | 1.07 | 0.846 | 0.801 | 0.909 | 0.763 | 0.753 | – | – | – | – | 0.612 | 0.555 | 0.589 | 0.525 | 0.447
HCC-366 | 1.06 | 0.98 | 1.16 | 1.07 | – | 0.418 | 0.713 | 0.564 | 0.372 | 0.271 | 0.247 | 0.286 | 0.322 | – | 0.411 | 0.38 | 0.38 | 0.251
NCI-H2405 | 0.978 | 0.962 | 0.944 | 0.95 | 0.628 | 0.753 | 0.884 | 0.824 | 0.767 | 0.759 | 0.75 | 0.759 | 0.8 | – | 0.763 | – | 0.854 | 0.754
NCI-H1648 | – | – | – | – | – | – | – | – | – | 0.565 | 0.797 | 0.53 | 0.622 | – | 0.466 | 0.588 | 0.769 | 0.28
LCLC-97TM1 | 0.608 | 0.878 | 0.761 | 0.919 | – | – | 0.593 | 0.472 | 0.357 | 0.287 | 0.303 | 0.362 | 0.206 | – | 0.342 | 0.417 | 0.387 | 0.345
EPLC-272H | 1 | 0.934 | 1.03 | 0.877 | – | 0.722 | 0.831 | 0.79 | 0.639 | 0.246 | 0.247 | 0.289 | 0.247 | 0.7 | 0.544 | 0.767 | 0.614 | 0.527
